{
  "source": "patent US20080281105A1",
  "about": "“Novel Quinolinium Salts and Derivatives” (IMMUSOL INCORPORATED, priority 2005, published 2008)",
  "key": {"[1]": {"system": "HCT-116", "test": "Liquid growth culture with and without added glucose (alamarBlue)", "type": "cell-based", "settings": "Homo sapiens", "from_the_text": "(§1) The method is as follows:"}, "[2]": {"system": "Panc-1", "test": "Liquid growth culture with and without added glucose (alamarBlue)", "type": "cell-based", "settings": "Homo sapiens", "from_the_text": "as §1"}, "[3]": {"system": "Pc3M/N", "test": "Liquid growth culture with and without added glucose (alamarBlue)", "type": "cell-based", "settings": "Homo sapiens, PC-3M", "from_the_text": "as §1"}, "[4]": {"system": "T47D", "test": "Cell growth in liquid culture (alamarBlue)", "settings": "Homo sapiens, 72 h, read-out: IC50 (uM) Liquid culture"}, "[5]": {"system": "SKBR3", "test": "Cell growth in liquid culture (alamarBlue)", "settings": "Homo sapiens, SK-BR-3, 72 h, read-out: IC50 (uM) Liquid culture"}, "[6]": {"system": "MDA-231", "test": "Cell growth in liquid culture (alamarBlue)", "settings": "Homo sapiens, MDA-MB-231, 72 h, read-out: IC50 (uM) Liquid culture"}, "[7]": {"system": "MDA_MB-435", "test": "Cell growth in liquid culture (alamarBlue)", "settings": "Homo sapiens, MDA-MB-435, 72 h, read-out: IC50 (uM) Liquid culture"}, "[8]": {"system": "HS578", "test": "Cell growth in liquid culture (alamarBlue)", "settings": "Hs578, 72 h, read-out: IC50 (uM) Liquid culture"}, "[9]": {"system": "HT29", "test": "Cell growth in liquid culture (alamarBlue)", "settings": "Homo sapiens, HT-29, 72 h, read-out: IC50 (uM) Liquid culture"}, "[10]": {"system": "SW480", "test": "Cell growth in liquid culture (alamarBlue)", "settings": "Homo sapiens, SW480, 72 h, read-out: IC50 (uM) Liquid culture"}, "[11]": {"system": "Pc3M/N", "test": "Cell growth in liquid culture (alamarBlue)", "settings": "Homo sapiens, PC-3M, 72 h, read-out: IC50 (uM) Liquid culture"}, "[12]": {"system": "DU145", "test": "Cell growth in liquid culture (alamarBlue)", "settings": "Homo sapiens, DU-145, 72 h, read-out: IC50 (uM) Liquid culture"}, "[13]": {"system": "Panc-1", "test": "Cell growth in liquid culture (alamarBlue)", "settings": "Homo sapiens, PANC-1, 72 h, read-out: IC50 (uM) Liquid culture"}, "[14]": {"system": "OVCAR-8", "test": "Cell growth in liquid culture (alamarBlue)", "settings": "Homo sapiens, OVCAR-8, 72 h, read-out: IC50 (uM) Liquid culture"}, "[15]": {"system": "SK-OV-3", "test": "Cell growth in liquid culture (alamarBlue)", "settings": "Homo sapiens, SK-OV-3, 72 h, read-out: IC50 (uM) Liquid culture"}, "[16]": {"system": "Caov-3", "test": "Cell growth in liquid culture (alamarBlue)", "settings": "Homo sapiens, Caov-3, 72 h, read-out: IC50 (uM) Liquid culture"}, "[17]": {"system": "UACC257", "test": "Cell growth in liquid culture (alamarBlue)", "settings": "Homo sapiens, UACC-257, 72 h, read-out: IC50 (uM) Liquid culture"}, "[18]": {"system": "A2058", "test": "Cell growth in liquid culture (alamarBlue)", "settings": "Homo sapiens, A2058, 72 h, read-out: IC50 (uM) Liquid culture"}, "[19]": {"system": "HUVEC", "test": "Cell growth in liquid culture (alamarBlue)", "settings": "Homo sapiens, 72 h, read-out: IC50 (uM) Liquid culture"}, "[20]": {"system": "IMR90", "test": "Cell growth in liquid culture (alamarBlue)", "settings": "Homo sapiens, IMR-90, 72 h, read-out: IC50 (uM) Liquid culture"}, "[21]": {"system": "CCD112/N", "test": "Cell growth in liquid culture (alamarBlue)", "settings": "72 h, read-out: IC50 (uM) Liquid culture"}, "[22]": {"system": "T47D", "test": "Cell growth in soft agar culture (alamarBlue)", "settings": "Homo sapiens, 168 h, read-out: IC50 (uM) Soft agar"}, "[23]": {"system": "HCT116-P53(−)", "test": "Cell growth in soft agar culture (alamarBlue)", "settings": "168 h, read-out: IC50 (uM) Soft agar"}, "[24]": {"system": "HT29", "test": "Cell growth in soft agar culture (alamarBlue)", "settings": "Homo sapiens, HT-29, 168 h, read-out: IC50 (uM) Soft agar"}, "[25]": {"system": "SW480", "test": "Cell growth in soft agar culture (alamarBlue)", "settings": "Homo sapiens, SW480, 168 h, read-out: IC50 (uM) Soft agar"}, "[26]": {"system": "DLD1", "test": "Cell growth in soft agar culture (alamarBlue)", "settings": "Homo sapiens, DLD-1, 168 h, read-out: IC50 (uM) Soft agar"}, "[27]": {"system": "DU145", "test": "Cell growth in soft agar culture (alamarBlue)", "settings": "Homo sapiens, DU-145, 168 h, read-out: IC50 (uM) Soft agar"}, "[28]": {"system": "A2780", "test": "Cell growth in soft agar culture (alamarBlue)", "settings": "Homo sapiens, A2780, 168 h, read-out: IC50 (uM) Soft agar"}, "[29]": {"system": "OVCAR-5", "test": "Cell growth in soft agar culture (alamarBlue)", "settings": "Homo sapiens, OVCAR-5, 168 h, read-out: IC50 (uM) Soft agar"}, "[30]": {"system": "UACC257", "test": "Cell growth in soft agar culture (alamarBlue)", "settings": "Homo sapiens, UACC-257, 168 h, read-out: IC50 (uM) Soft agar"}},
  "data": [
    {"smiles": "Cc1cc(/C=C/c2ccc3cc(N(C)C)ccc3[n+]2C)c(C)n1-c1ccccc1", "note": "[Example 1, Pyrvinium Phosphate]", "values": [
      {"measurement": "IC80", "setting": "[1]; HCT-116, HCT-116, (+) Glu", "result": 1000, "unit": "nM"},
      {"measurement": "IC80", "setting": "[1]; HCT-116, HCT-116, (−) Glu", "result": 100, "unit": "nM"},
      {"measurement": "IC80", "setting": "[2]; PANC-1, Panc-1, (+) Glu", "result": "> 1000", "unit": "nM"},
      {"measurement": "IC80", "setting": "[2]; PANC-1, Panc-1, (−) Glu", "result": 100, "unit": "nM"},
      {"measurement": "IC80", "setting": "[3]; (+) Glu", "result": 1000, "unit": "nM"},
      {"measurement": "IC80", "setting": "[3]; (−) Glu", "result": 100, "unit": "nM"},
      {"measurement": "IC50", "setting": "[4]", "result": "~0.03", "unit": "µM"},
      {"measurement": "IC50", "setting": "[5]", "result": "~1", "unit": "µM"},
      {"measurement": "IC50", "setting": "[6]", "result": "0.1 to 0.3", "unit": "µM"},
      {"measurement": "IC50", "setting": "[7]", "result": "0.3 to 1", "unit": "µM"},
      {"measurement": "IC50", "setting": "[8]", "result": "0.1 to 0.3", "unit": "µM"},
      {"measurement": "IC50", "setting": "[9]", "result": "> 1", "unit": "µM"},
      {"measurement": "IC50", "setting": "[10]", "result": "0.3 to 1", "unit": "µM"},
      {"measurement": "IC50", "setting": "[11]", "result": "> 1", "unit": "µM"},
      {"measurement": "IC50", "setting": "[12]", "result": "> 1", "unit": "µM"},
      {"measurement": "IC50", "setting": "[13]", "result": "0.3 to 1", "unit": "µM"},
      {"measurement": "IC50", "setting": "[14]", "result": "0.1 to 0.3", "unit": "µM"},
      {"measurement": "IC50", "setting": "[15]", "result": "0.1 to 0.3", "unit": "µM"},
      {"measurement": "IC50", "setting": "[16]", "result": "0.03 to 0.1", "unit": "µM"},
      {"measurement": "IC50", "setting": "[17]", "result": "~0.1", "unit": "µM"},
      {"measurement": "IC50", "setting": "[18]", "result": "0.1 to 0.3", "unit": "µM"},
      {"measurement": "IC50", "setting": "[19]", "result": "0.03 to 0.1", "unit": "µM"},
      {"measurement": "IC50", "setting": "[20]", "result": "0.1 to 0.3", "unit": "µM"},
      {"measurement": "IC50", "setting": "[21]", "result": "~1", "unit": "µM"},
      {"measurement": "IC50", "setting": "[22]", "result": "< 0.03", "unit": "µM"},
      {"measurement": "IC50", "setting": "[23]", "result": "0.1 to 0.3", "unit": "µM"},
      {"measurement": "IC50", "setting": "[24]", "result": "0.03 to 0.1", "unit": "µM"},
      {"measurement": "IC50", "setting": "[25]", "result": "0.3 to 1", "unit": "µM"},
      {"measurement": "IC50", "setting": "[26]", "result": "~1", "unit": "µM"},
      {"measurement": "IC50", "setting": "[27]", "result": "0.3 to 1", "unit": "µM"},
      {"measurement": "IC50", "setting": "[28]", "result": "0.03 to 0.1", "unit": "µM"},
      {"measurement": "IC50", "setting": "[29]", "result": "0.03 to 0.1", "unit": "µM"},
      {"measurement": "IC50", "setting": "[30]", "result": "0.1 to 0.3", "unit": "µM"}
    ]}
  ]
}
